In PMC6389962 (Nature Communications, 2019):
Like-named read-outs stand apart in the source and are kept apart here. Starred links: 1 amine or outer side, 2 acyl side, 3 side chain; linkers in the order of their positions; H or OH if unused. Positions of bridges follow the written chain, without caps; N, C: chain ends. Residues, ends and D or L forms follow the SMILES beside them. Chains are numbered I, II in the order given. X4 = C[C@@H](CNC(=O)N[C@@H](C)CNC(=O)[*:2])NC(=O)NC[C@H](CCC(=O)O)N[*:1]; X1 = C[C@@H](CNC(=O)N[C@@H](C)CNC(=O)[*:2])NC(=O)NC[C@H](C)N[*:1]

Tests used:
in vitro = conditions: mouse, plasma, pH 7.4, % remaining analogue
Description: The oligomer was then diluted 1/50 with a solution of plasma/PBS pH 7.4 (1:1) to afford a final concentration of 5 µM and incubated at 37 °C (4 µL of the stock solution was diluted with 196 µL of plasma/PBS, pH 7.4, 1:1). Each compound was also incubated in the absence of plasma (196 µL of H2O/PBS, pH 7.4, 1:1). At the indicated time (20 min and 60 min) an aliquot of 70 µL was removed from each experimental reaction and pipetting into 175 µL of acetonitrile at 0 °C to quench the reaction (t = 0 min was determined using the reaction without plasma). The samples were frozen at –80 °C before analysis. The frozen samples were defrosted, stirred with a vortex 5 min and finally centrifuged 5 min at 16 °C (1500 × g). The supernatant was analysed by LC-MS. The time course of oligomer degradation was determined by integrating the area of the peak in the extracted ion chromatogram.
Supplementar y Figur e 2 : Mouse plasma degradation assay. […] Data are
mean ± SEM, n = 4. Source data are provided as a Source Data file (T able 2 tab).
Supplementar y Figur e 3.
Data are mean ± SEM, n = 3.
Source data are provided as a Source Data file […]

normal mice (C57BL/6J) = test: Blood glucose study in normal fed mice; assay type: in vivo, mouse; set-up: key to In vivo activity (indicator): + active; +++: + + + more active; conditions: for effect on blood glucose concentration: normal fed C57BL/6J mice, n = 3, 5 μg per mouse (50 nmol kg−1) i.v., monitored 6 h
Description: In the first study, we evaluated the effect of the analogues on the blood glucose concentration of normal mice (Fig. 3). The fed mice were treated with the analogues and their blood glucose concentration was monitored before and after dosing for 6 h. […] Indeed, a decrease of blood glucose concentration is observed after 30 min and the effect is preserved for 4 h after dosing.
Fig. 3 Blood glucose study in mice. a–c Blood glucose concentration in normal mice (C57BL/6J, male, 20–25 g, n = 3) before and after dosing: 5 μg per mouse (50 nmol kg^−1) i.v. Formulation: 20 μg mL^−1 in PBS 1×. The dosing was done at T0. Data are mean ± SEM. […] Source data are provided as a Source Data file
After the acclimation period (at least 5 days), mice (male C57BL/6J mice (Charles River laboratories) 8 weeks old, 20–25 g) were randomized into 10 groups (n = 3 per group) according to their body weight. They were acutely treated via i.v. route at 10 am (5 µg per mouse). Blood glucose was measured before dosing and at 30 min, 1, 2, 4, 6 h after dosing in fed conditions.

mouse GLP-1 receptor [1] = biological target: T1, mouse GLP-1 receptor (Mus musculus, UniProt O35659); conditions: for Potency (%), percentage of potency compare to GLP-1-G^2: cAMP production, from EC50
T1 sequence (O35659 22-463): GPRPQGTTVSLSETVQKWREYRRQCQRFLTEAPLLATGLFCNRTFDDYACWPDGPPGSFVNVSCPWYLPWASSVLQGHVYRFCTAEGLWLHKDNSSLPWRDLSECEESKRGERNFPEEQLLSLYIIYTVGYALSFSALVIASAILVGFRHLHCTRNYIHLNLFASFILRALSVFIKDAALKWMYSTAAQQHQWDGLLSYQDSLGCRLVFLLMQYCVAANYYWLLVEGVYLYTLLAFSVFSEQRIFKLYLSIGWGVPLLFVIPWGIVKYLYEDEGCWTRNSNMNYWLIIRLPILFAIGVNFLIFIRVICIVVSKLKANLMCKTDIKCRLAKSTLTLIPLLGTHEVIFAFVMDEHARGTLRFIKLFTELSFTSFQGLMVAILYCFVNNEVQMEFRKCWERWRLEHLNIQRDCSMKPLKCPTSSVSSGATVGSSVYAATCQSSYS

mouse GLP-1 receptor [2] = biological target: T1, mouse GLP-1 receptor; test: cell-based; conditions: for Emax: 14: experiment 1
[3] = read-out: Top (best-fit value), variable slope four-parameter fit, unconstrained

Compound | remaining at 1 h, 5 µM (in vitro) | Potency (%), percentage of potency compare to GLP-1-G^2 (mouse GLP-1 receptor [1]) | EC50 (mouse GLP-1 receptor [2]) | Emax (mouse GLP-1 receptor [2]; read-out: Top (best-fit value), fit with BOTTOM = 0%) | Emax (mouse GLP-1 receptor [2]; [3]) | LogEC50 (best-fit value) (mouse GLP-1 receptor [1]) | remaining at 20 min, 5 µM (in vitro) | effect on blood glucose concentration (normal mice (C57BL/6J)) | In vivo activity (indicator) (normal mice (C57BL/6J); mice, 50 nmol kg−1 i.v.)
CC[C@H](C)[C@H](NC(=O)[C@H](Cc1ccccc1)NC(=O)[C@H](CCC(=O)O)NC(=O)[C@H](CCCCN)NC(=O)[C@H](C)NC(=O)NC[C@H](C)NC(=O)NC[C@H](C)NC(=O)NC[C@H](C)NC(=O)[C@H](CC(C)C)NC(=O)[C@H](Cc1ccc(O)cc1)NC(=O)[C@H](CO)NC(=O)[C@H](CO)NC(=O)[C@@H](NC(=O)[C@H](CC(=O)O)NC(=O)[C@H](CO)NC(=O)[C@@H](NC(=O)[C@H](Cc1ccccc1)NC(=O)[C@@H](NC(=O)CNC(=O)[C@H](CCC(=O)O)NC(=O)CNC(=O)[C@@H](N)Cc1c[nH]cn1)[C@@H](C)O)[C@@H](C)O)C(C)C)C(=O)N[C@@H](C)C(=O)N[C@@H](Cc1c[nH]c2ccccc12)C(=O)N[C@@H](CC(C)C)C(=O)N[C@H](C(=O)N[C@@H](CCCCN)C(=O)NCC(=O)N[C@@H](CCCNC(=N)N)C(=O)NCC(N)=O)C(C)C [compound 10, GG2[A^uA^uA^u]^15-18] (I: H-HGEGTFTSDVSSYL / II: AKEFIAWLVKGRG-NH2; linker I:C-II:N via X1) |  | 0.2% | 0.123 µM |  | 61.5% | -6.91 |  |  | 
CC[C@H](C)[C@H](NC(=O)[C@H](Cc1ccccc1)NC(=O)[C@H](CCC(=O)O)NC(=O)NC[C@H](C)NC(=O)NC[C@H](C)NC(=O)NC[C@H](C)NC(=O)CNC(=O)[C@H](CCC(=O)O)NC(=O)[C@H](CC(C)C)NC(=O)[C@H](Cc1ccc(O)cc1)NC(=O)[C@H](CO)NC(=O)[C@H](CO)NC(=O)[C@@H](NC(=O)[C@H](CC(=O)O)NC(=O)[C@H](CO)NC(=O)[C@@H](NC(=O)[C@H](Cc1ccccc1)NC(=O)[C@@H](NC(=O)CNC(=O)[C@H](CCC(=O)O)NC(=O)CNC(=O)[C@@H](N)Cc1c[nH]cn1)[C@@H](C)O)[C@@H](C)O)C(C)C)C(=O)N[C@@H](C)C(=O)N[C@@H](Cc1c[nH]c2ccccc12)C(=O)N[C@@H](CC(C)C)C(=O)N[C@H](C(=O)N[C@@H](CCCCN)C(=O)NCC(=O)N[C@@H](CCCNC(=N)N)C(=O)NCC(N)=O)C(C)C [compound 13, GG2[A^uA^uA^u]^17-20] |  |  | 1.6 µM |  | 57.7% | -5.795 |  |  | 
CC[C@H](C)[C@H](NC(=O)[C@H](Cc1ccccc1)NC(=O)[C@H](CCC(=O)O)NC(=O)[C@H](CCCCN)NC(=O)[C@H](C)NC(=O)NC[C@H](C)NC(=O)NC[C@H](C)NC(=O)NC[C@H](CCC(=O)O)NC(=O)[C@H](CC(C)C)NC(=O)[C@H](Cc1ccc(O)cc1)NC(=O)[C@H](CO)NC(=O)[C@H](CO)NC(=O)[C@@H](NC(=O)[C@H](CC(=O)O)NC(=O)[C@H](CO)NC(=O)[C@@H](NC(=O)[C@H](Cc1ccccc1)NC(=O)[C@@H](NC(=O)CNC(=O)[C@H](CCC(=O)O)NC(=O)CNC(=O)[C@@H](N)Cc1c[nH]cn1)[C@@H](C)O)[C@@H](C)O)C(C)C)C(=O)N[C@@H](C)C(=O)N[C@@H](Cc1c[nH]c2ccccc12)C(=O)N[C@@H](CC(C)C)C(=O)N[C@H](C(=O)N[C@@H](CCCCN)C(=O)NCC(=O)N[C@@H](CCCNC(=N)N)C(=O)NCC(N)=O)C(C)C [compound 11, GG2[E^uA^uA^u]^15-18] (I: H-HGEGTFTSDVSSYL / II: AKEFIAWLVKGRG-NH2; linker I:C-II:N via X4) | 31.1% | 13% |  |  |  | -8.721 | 44.7% |  | 
CC[C@H](C)[C@H](NC(=O)[C@H](Cc1ccccc1)NC(=O)[C@H](CCC(=O)O)NC(=O)[C@H](CCCCN)NC(=O)[C@H](C)NC(=O)[C@H](C)NC(=O)[C@H](CCC(N)=O)NC(=O)CNC(=O)[C@H](CCC(=O)O)NC(=O)NC[C@H](C)NC(=O)NC[C@H](Cc1ccc(O)cc1)NC(=O)NC[C@H](C)NC(=O)[C@@H](NC(=O)[C@H](CC(=O)O)NC(=O)[C@H](CO)NC(=O)[C@@H](NC(=O)[C@H](Cc1ccccc1)NC(=O)[C@@H](NC(=O)CNC(=O)[C@H](CCC(=O)O)NC(=O)CNC(=O)[C@@H](N)Cc1c[nH]cn1)[C@@H](C)O)[C@@H](C)O)C(C)C)C(=O)N[C@@H](C)C(=O)N[C@@H](Cc1c[nH]c2ccccc12)C(=O)N[C@@H](CC(C)C)C(=O)N[C@H](C(=O)N[C@@H](CCCCN)C(=O)NCC(=O)N[C@@H](CCCNC(=N)N)C(=O)NCC(N)=O)C(C)C [compound 5, GG2[A^uY^uA^u]^11-14] | 33.6% | 15% | 0.0016 µM |  | 89.4% | -8.806 | 55% | showed efficacy but no improvement | +

Now from value to compound, other results behind:

remaining at 1 h, 5 µM (in vitro) | Potency (%), percentage of potency compare to GLP-1-G^2 (mouse GLP-1 receptor [1]) | EC50 (mouse GLP-1 receptor [2]) | Emax (mouse GLP-1 receptor [2]; read-out: Top (best-fit value), fit with BOTTOM = 0%) | Emax (mouse GLP-1 receptor [2]; [3]) | LogEC50 (best-fit value) (mouse GLP-1 receptor [1]) | remaining at 20 min, 5 µM (in vitro) | Compound | effect on blood glucose concentration (normal mice (C57BL/6J)) | In vivo activity (indicator) (normal mice (C57BL/6J); mice, 50 nmol kg−1 i.v.)
41.6% | 0.4% | 0.062 µM | 228% |  |  |  | CC[C@H](C)[C@@H](CNC(=O)N[C@@H](C)CNC(=O)N[C@@H](CC(C)C)C(=O)N[C@H](C(=O)N[C@@H](CCCCN)C(=O)NCC(=O)N[C@@H](CCCNC(=N)N)C(=O)NCC(N)=O)C(C)C)NC(=O)N[C@@H](CNC(=O)[C@H](CCC(=O)O)NC(=O)[C@H](CCCCN)NC(=O)[C@H](C)NC(=O)[C@H](C)NC(=O)[C@H](CCC(N)=O)NC(=O)CNC(=O)[C@H](CCC(=O)O)NC(=O)[C@H](CC(C)C)NC(=O)[C@H](Cc1ccc(O)cc1)NC(=O)[C@H](CO)NC(=O)[C@H](CO)NC(=O)[C@@H](NC(=O)[C@H](CC(=O)O)NC(=O)[C@H](CO)NC(=O)[C@@H](NC(=O)[C@H](Cc1ccccc1)NC(=O)[C@@H](NC(=O)CNC(=O)[C@H](CCC(=O)O)NC(=O)CNC(=O)[C@@H](N)Cc1c[nH]cn1)[C@@H](C)O)[C@@H](C)O)C(C)C)Cc1ccccc1 [compound 16, GG2[F^uαf^uA^u]^22-25] | showed no activity | 
 | < 0.01% | > 10 µM |  | 198% |  |  | CC[C@H](C)[C@H](NC(=O)[C@H](Cc1ccccc1)NC(=O)[C@H](CCC(=O)O)NC(=O)[C@H](CCCCN)NC(=O)[C@H](C)NC(=O)[C@H](C)NC(=O)[C@H](CCC(N)=O)NC(=O)CNC(=O)[C@H](CCC(=O)O)NC(=O)[C@H](CC(C)C)NC(=O)[C@H](Cc1ccc(O)cc1)NC(=O)[C@H](CO)NC(=O)[C@H](CO)NC(=O)[C@@H](NC(=O)[C@H](CC(=O)O)NC(=O)[C@H](CO)NC(=O)[C@@H](NC(=O)[C@H](Cc1ccccc1)NC(=O)[C@@H](NC(=O)CNC(=O)[C@H](CCC(=O)O)NC(=O)CNC(=O)[C@@H](N)Cc1c[nH]cn1)[C@@H](C)O)[C@@H](C)O)C(C)C)C(=O)N[C@@H](C)CNC(=O)N[C@@H](C)CNC(=O)N[C@@H](C)CNC(=O)N[C@@H](CCCCN)C(=O)NCC(=O)N[C@@H](CCCNC(=N)N)C(=O)NCC(N)=O [compound 18, GG2[A^uA^uA^u]^24-27] |  | 
 | 0.01% | 3.93 µM |  | 98.7% | -5.406 |  | CC(C)C[C@H](NC(=O)[C@H](Cc1ccc(O)cc1)NC(=O)[C@H](CO)NC(=O)[C@H](CO)NC(=O)[C@@H](NC(=O)[C@H](CC(=O)O)NC(=O)[C@H](CO)NC(=O)[C@@H](NC(=O)[C@H](Cc1ccccc1)NC(=O)[C@@H](NC(=O)CNC(=O)[C@H](CCC(=O)O)NC(=O)CNC(=O)[C@@H](N)Cc1c[nH]cn1)[C@@H](C)O)[C@@H](C)O)C(C)C)C(=O)N[C@@H](CCC(=O)O)C(=O)NCC(=O)N[C@@H](CCC(N)=O)C(=O)N[C@@H](C)C(=O)N[C@@H](C)C(=O)N[C@@H](CCCCN)C(=O)N[C@@H](CCC(=O)O)C(=O)N[C@@H](Cc1ccccc1)C(=O)N[C@@H](C)CNC(=O)N[C@@H](C)CNC(=O)N[C@@H](C)CNC(=O)N[C@H](C(=O)N[C@@H](CCCCN)C(=O)NCC(=O)N[C@@H](CCCNC(=N)N)C(=O)NCC(N)=O)C(C)C [compound 17, GG2[A^uA^uA^u]^23-26] |  | 
